Test results from patent US7220784B2, “Substituted stilbenes and their reactions” (priority 2000, dated 2007).
Like-named read-outs stand apart in the source and are kept apart here.

Tests used:
tubulin [1] = test: MA IC50 (Tables 12-26, abbreviation not defined); type: biochemical
tubulin [2] = test: CD IC50 (Tables 12-26, abbreviation not defined); type: binding
HUVEC = test: Growth inhibition studies using HUVEC; type: cell-based, human; details: Homo sapiens, HUVEC
Protocol: (§1) The following assays (1–5) were carried out as described in our paper (Woods, et al, British Journal of Cancer, 71, 705–711 (1995)). In addition to the cell lines described in this paper, other established human cell lines (K562, HUVEC, H460, BE, H529, and HT29) were used in the cytotoxicity/growth inhibition assay. • (1) Inhibition of tubulin assembly. The figure quoted is the concentration required to reduce assembly of tubulin by 50%. Tubulin assembly is monitored by light scatter/absorption at 350 nm.
(§2) (2) Competition for the colchicine binding site on tubulin. The figure quoted represents the % of ^3H-colchicine bound following co-incubation of test compound and ^3H-cochicine with isolated tubulin. Where ester pro-drugs were used the experiments were carried out in the presence and absence of porcine liver esterase. • (3) Cytotoxicity/growth inhibition assay. This was carried out by the MTT assay. • (4) Permeability (shape-change) assay in endothelial cells. This was carried out using a method based on that of Watts et al. (Anticancer Res., 17, 71–75, (1997)). This involved the diffusion of a fluorescently labelled dextran through a barrier of endothelial cells (HUVEC) grown to confluence on a porous membrane. The effect of agents to alter the shape of these cells results in an increase in the permeability of the cells to the dye. The figure represents the increase in permeability over control cultures when drug is added (30 minutes, 1 mM.). • (5) Experiments to study the anti-vascular effects of these agents were carried out as described previously by our group. (Zhao et al, European Journal of Nuclear Medicine, 26, 231–238 (1999)). The anti-vascular effects of the agents were monitored by either positron emission tomography (PET) or by histologogical examination following treatment of mice bearing T50:80 murine breast tumours, or H460 human lung tumours. • (6) Anti-tumour efficacy of agents was determined in xenografts of H460 human lung cancer. Animals (n=5) were trated either with 5 daily injections and tumour size measured with time following treatment. • (7) The pharmacokinetic profile of agents was determined in mice following injection with drug. Blood was taken at various times following treatment and analysed by HPLC with UV detection. The HPLC conditions were isocratic using a 5 micron C18 BDS column (150×4.6) ad eluting with 75% MeOH in water with a detection wavelength of 290 nm. […] (AND(P)H:quinone oxidoreductace, EC 1.6.99.2). DT-diaphorase is an enzyme over-expressed in a number of human tumours. […] This two-electron reducing enzyme can be used to selectively activate prodrugs within cancers which over-express the enzyme.

[3] = test system: K562 human myelogeneous leukaemia cell line; test: Cytotoxicity/growth inhibition assay (MTT), K562; type: cell-based
How it was run: (§3)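 Growth inhibition of P388 murine and K562 human leukaemia cells measured by MTT assay.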

K562 = K562 cell cycle analysis; type: cell-based, human; details: K562; for % of cells in G0–G1 / % of cells in G2-M / % of cells in S phase: of cells with DNA content = 2 n or >2 n
A2780/ADR = test: Cytotoxicity/growth inhibition assay (MTT), A2780/ADR; type: cell-based
Protocol: as §1, §2

A2780 = test: Cytotoxicity/growth inhibition assay (MTT), A2780; type: cell-based
Protocol: as §1, §2

[4] = test system: colchicine binding site on tubulin; test: Competition for the colchicine binding site on tubulin; details: % of 3H-colchicine bound; for Colchicine displacement protein:drug 1:10 (with esterase): with porcine liver esterase
Protocol: as §2, with “This was carried out using a method based on that of Watts et al. (Anticancer Res., 17, 71–75, (1997)).” left out, “(Zhao et al, European Journal of Nuclear Medicine, 26, 231–238 (1999)).” left out, “detection.” for “detection. The HPLC conditions were isocratic using a 5 micron C18 BDS column (150×4.6) ad eluting with 75% MeOH in water with a detection wavelength of 290 nm.”

tubulin [5] = test system: T1, tubulin; test: Inhibition of tubulin assembly; type: biochemical; details: concentration required to reduce assembly of tubulin by 50%
T1 construct: other: concentration required to reduce assembly of tubulin by 50%
Protocol: as §1

[6] = test system: P388 murine leukaemia cell line; test: Cytotoxicity/growth inhibition assay (MTT), P388; type: cell-based; details: Mus musculus, P388, MTT
How it was run: as §3

[7] = Homo sapiens, K562, Table 22, read-out: MTT (K582) IC50
[8] = Homo sapiens, A2780, read-out: IC50 (nM) A2780
[9] = Homo sapiens, K562, MTT, read-out: K562 IC50

SMILES	IC50 (tubulin [1])	IC50 (tubulin [2])	IC50 (HUVEC)	% of cells with DNA content <2 n (K562)	% of cells in G0–G1 (K562)	% of cells in G2-M (K562)	% of cells in S phase (K562)	IC50 (tubulin [5])	IC50 [3, 9]	also measured
COc1ccc(C=C(C)c2cc(OC)c(OC)c(OC)c2)cc1 [Compound 213]	1.3 µM	> 25 µM	0.35 µM	23%	5%	73%	21%			IC50 [3, 7]: 0.1 µM
COc1ccc(/C=C\c2cc(OC)c(OC)c(OC)c2)cc1OC(=O)CNC(=O)OC(C)(C)C [Compound 35]								7.5 µM		IC50 (A2780/ADR; A2780 ADR): 5 nM; IC50 (A2780; [8]): 4.3 nM; Colchicine displacement protein:drug 1:10 (with esterase) [4]: 4%; Colchicine displacement protein:drug 1:10 (without esterase) [4]: 65%
COc1ccc(/C=C\c2cc(C)c(C)c(C)c2)cc1O [Compound 133]	0.12 µM	10 µM	0.05 µM	6%	3%	91%	6%			IC50 ([3]; MTT, read-out: K562 IC50): 0.02 µM
COc1ccc(/C=C\c2cc(C)c(C)c(C)c2)cc1 [Compound 117]	0.65 µM	> 25 µM	> 1 µM	15%	3%	87%	10%		0.31 µM	
COc1ccc(C=Cc2cc(OC)c(OC)c(OC)c2)cc1OC(=O)C(Cc1c[nH]c2ccccc12)NC(=O)OC(C)(C)C (stereo not shown) [Compound 36]								4 µM		IC50 (A2780/ADR; A2780 ADR): 2 nM; IC50 (A2780; [8]): 1.7 nM
COc1ccc(/C=C\c2cc(OC)c(OC)c(OC)c2)cc1F [Compound 90]	0.085 µM	2.8 µM	0.004 µM	16%	5%	79%	16%		0.01 µM	
COc1ccc(C=Cc2cc(OC)c(OC)c(OC)c2)cc1OC(=O)C(C)NC(=O)OC(C)(C)C (stereo not shown) [Compound 39]								8 µM		IC50 (A2780/ADR; A2780 ADR): 4.6 nM; IC50 (A2780; [8]): 2.7 nM; Colchicine displacement protein:drug 1:10 (with esterase) [4]: 2%; Colchicine displacement protein:drug 1:10 (without esterase) [4]: 77%
COc1ccc(C=Cc2cc(OC)c(OC)c(OC)c2)cc1OC(=O)C(Cc1ccccc1)NC(=O)OC(C)(C)C (stereo not shown) [Compound 33, Boc-Phenylalanine Combretastatin A-4]								3.6 µM		IC50 (A2780/ADR; A2780 ADR): 4 nM; IC50 (A2780; [8]): 2.8 nM; Colchicine displacement protein:drug 1:10 (with esterase) [4]: 2%; Colchicine displacement protein:drug 1:10 (without esterase) [4]: 92%
CCC(C)C(NC(=O)OC(C)(C)C)C(=O)Oc1cc(C=Cc2cc(OC)c(OC)c(OC)c2)ccc1OC (stereo not shown) [Compound 34]								6.2 µM		IC50 (A2780/ADR; A2780 ADR): > 60 nM; IC50 (A2780; [8]): > 60 nM; Colchicine displacement protein:drug 1:10 (with esterase) [4]: 2%; Colchicine displacement protein:drug 1:10 (without esterase) [4]: 65%
COc1ccc(/C=C\c2cc(OC)c(OC)c(OC)c2)cc1Br [Compound 93]	0.4 µM	10 µM	0.067 µM						0.001 µM	
COc1cc(C=Cc2ccc(N(C)C)cc2)cc(OC)c1OC [Compound 97-65]			0.35 µM					100 µM		IC50 (A2780; Homo sapiens, A2780, read-out: A2780 IC50): 95 nM; IC50 [6]: 0.18 µM
CCOc1cc(C=Cc2ccc(OC)c(F)c2)cc(OCC)c1OCC [Compound 251]	1.25 µM	> 25 µM	0.19 µM	24%	7%	75%	18%		0.044 µM	
CCOc1cc(C=Cc2ccc(OC)c(O)c2)cc(OCC)c1OCC [Compound 253]	0.5 µM	15.5 µM	0.05 µM	4%	3%	92%	6%		0.018 µM	
COc1ccc(C=C(C)c2cc(OC)c(OC)c(OC)c2)cc1O [Compound 210]	0.13 µM	6 µM	0.09 µM	23%	5%	73%	22%		0.04 µM	IC50 [3, 7]: 0.04 µM
CCC(=Cc1ccc(OC)c(O)c1)c1cc(OC)c(OC)c(OC)c1 [Compound 219]	0.13 µM	> 25 µM	0.22 µM	24%	7%	74%	19%			IC50 [3, 7]: 0.12 µM
COc1ccc(/C=C\c2cc(C)c(C)c(C)c2)cc1F [Compound 120]	0.7 µM	10 µM	0.46 µM	23%	6%	77%	17%		0.14 µM	
COc1ccc(/C=C\c2cc(OC)c(OC)c(OC)c2)cc1OC(=O)C(Cc1ccc(O)cc1)NC(=O)OC(C)(C)C (stereo not shown) [Compound 44]										IC50 (A2780/ADR): 6.4 nM; IC50 (A2780; read-out: IC50 (nM) A2780): 4.5 nM
